According to patent EP4574818A1, “ONIUM SALT OF NITROGEN-CONTAINING HETEROARYL COMPOUND AND PEST CONTROL AGENT” (priority 2022, dated 2024):

Assays:
Format in all cases: in vivo
[1] = test system: Spodoptera litura; assay: Efficacy test against Spodoptera litura (cabbage leaf immersion); conditions: 144 h, 125 ppm by mass, cabbage leaf immersed 30 seconds, second-instar larvae, 25°C, humidity 60%, after six days, read-out: mortality of Spodoptera litura
Method: A cabbage leaf was immersed in the diluted solution for 30 seconds. The cabbage leaf was air-dried and then put in a petri dish, followed by leaving five second-instar larvae of Spodoptera litura therein. The petri dish was placed in a thermostatic chamber at a temperature of 25°C and a humidity of 60%. After six days had passed from leaving the larvae, life or death was assessed and the mortality was calculated. The test was repeated twice.

[2] = test system: Plutella xylostella; assay: Efficacy test against Plutella xylostella (cabbage leaf immersion); conditions: 72 h; 125 ppm by mass; cabbage leaf immersed 30 seconds; second-instar larvae of Plutella xylostella; 25°C, humidity 60%; after three days; read-out: mortality
Method: The emulsion (II) was diluted with water at the same dilution ratio as the diluted solution (I), thereby obtaining a diluted solution (II). A cabbage leaf was immersed in each of the diluted solutions for 30 seconds. Each cabbage leaf after immersion was air-dried and then put in a petri dish, followed by leaving five second-instar larvae of Plutella xylostella therein. The petri dishes were placed in a thermostatic chamber at a temperature of 25°C and a humidity of 60%. After three days had passed from leaving the larvae, life or death was assessed and the mortality was calculated. The test was repeated twice.

[3] = test system: Phyllotreta striolata; assay: Efficacy test against Phyllotreta striolata (sprayed bok-choy seedling); conditions: 168 h, 125 ppm by mass, sprayed to bok-choy seedling, adults, 25°C, humidity 65%, after seven days, read-out: mortality against the adults of Phyllotreta striolata
Method: (§1) 5 parts by mass of a compound of the present invention, 93.6 parts by mass of dimethylformamide, and 1.4 parts by mass of polyoxyethylene alkyl aryl ether were mixed and dissolved to obtain an emulsion (I) containing 5% by mass of the active ingredient.
The emulsion (I) was diluted with water such that the concentration of the compound of the present invention became 125 ppm by mass. The diluted solution was sprayed to a bok-choy seedling (at the 7th leafe stage) planted in a 3-sun pot. After air-dried, the bok-choy seedling was placed in a plastic cup, and ten adults of Phyllotreta striolata were left therein. The plastic cup was placed in a thermostatic chamber at a temperature of 25°C and a humidity of 65%. After seven days had passed from leaving the adults, life or death was assessed and the mortality was calculated. The test was repeated twice.

[4] = test system: Ctenocephalides felis; assay: Efficacy test against Ctenocephalides felis (thin film in glass vial); conditions: 96 h, 100 µL of 16 ppm by mass isopropanol solution dried as thin film in glass vial, adults, 25°C, after four days
Method: The compound of the present invention was dissolved in isopropanol to prepare a drug solution having a concentration of 16 ppm by mass. 100 µL of the drug solution was coated on the inner surface of the bottom of a glass vial container (φ […]), and then isopropanol was vaporized by air-drying to form a thin film of the compound of the present invention. In the vial container, four adults (a mixture of males and females) of cat flea (Ctenocephalides felis) were left. The lid was put on the vial container, and the vial container was placed in a thermostatic chamber at 25°C. After four days had passed from leaving the adults, life or death of Ctenocephalides felis was assessed and the mortality was calculated.

[5] = test system: Mythimna separata; assay: Efficacy test against Mythimna separata (treated artificial feed); conditions: 1 µl of emulsion (I) (5% by mass active ingredient) mixed with 0.8 g artificial feed; second-instar larvae; 25°C; after five days
Method: as §1
0.8 g of commercially-available artificial feed (Insect LFS, manufactured by Nosan Corporation) and 1 µl of the emulsion (I) were mixed well, and then 0.2 g of the mixture per treated area was packed into plastic test containers (each having a capacity of 1.4 ml) as test feeds.
Two second-instar larvae of Mythimna separata were left per treated area, and then the test containers were sealed with plastic covers. The test containers were placed in a thermostatic chamber at 25°C, and, after five days had passed therefrom, the mortality and the feed intake were measured. The test was repeated twice.
In addition, the test was carried out under the same conditions as described above, except that the emulsion (II) was used instead of the emulsion (I), and evaluated as a solvent control area.

[6] = test system: Haemophysalis longicornis; assay: Efficacy test against Haemophysalis longicornis (thin film in glass test tube); conditions: 100 µL of 16 ppm by mass isopropanol solution dried as thin film in glass test tube; nymphs; 25°C; after four days; 5760 min
Method: The compound of the present invention was dissolved in isopropanol to prepare a drug solution having a concentration of 16 ppm by mass. 100 µL of the drug solution was coated on the inner surface of the bottom of a glass test tube (φ 12 mm), and then isopropanol was vaporized by air-drying to form a thin film of the compound of the present invention. In the test tube, four nymphs of Haemophysalis longicornis were left. The lid was put on the test tube, and the test tube was placed in a thermostatic chamber at 25°C. After four days had passed from leaving the nymphs, life or death of Haemophysalis longicornis was assessed and the mortality was calculated.

Compound	mortality at 125 ppm [1] [%]	mortality at 125 ppm [2] [%]	mortality at 125 ppm [3] [%]	mortality at 16 ppm [4] [%]	mortality of Mythimna separata or feed intake relative to the feed intake at the solvent control area [5]	mortality against Haemophysalis longicornis [6] [%]
CCn1c[n+]([N-]C(=O)c2cc(Cl)nc(Oc3ccc(OC(F)(F)C(F)(F)F)cc3)c2)cn1 [Compound 10]	≥ 80	≥ 80	≥ 80	≥ 80	–	–
O=C([N-][n+]1ccccc1)c1cc(Cl)nc(Oc2ccc(OC(F)(F)F)cc2)c1 [Compound 175, (2-chloro-6-(4-(trifluoromethoxy)phenoxy)isonicotinoyl)(pyridin-1-ium-1-yl)amide]	≥ 80	≥ 80	≥ 80	≥ 80	100% mortality of Mythimna separata or 10% or less of the feed intake	≥ 80
O=C([N-][n+]1cccc(F)c1)c1cc(Cl)nc(Oc2ccc(OC(F)(F)F)cc2)c1 [Compound 1]	≥ 80	≥ 80	≥ 80	≥ 80	100% mortality of Mythimna separata or 10% or less of the feed intake	–
O=C([N-][n+]1ccccc1)c1cc(Cl)nc(Oc2ccc(OC(F)(F)C(F)(F)F)cc2)c1 [Compound 3]	≥ 80	≥ 80	≥ 80	–	100% mortality of Mythimna separata or 10% or less of the feed intake	–
O=C([N-][n+]1cccc(F)c1)c1cc(Cl)nc(Oc2ccc(OC(F)(F)C(F)(F)F)cc2)c1 [Compound 7]	≥ 80	≥ 80	–	≥ 80	–	–
